This passage reports T/C results from PubChem BioAssay AID248 (DTP/NCI, 2004).

This assay concerns L1210 leukemia ip in BDF1 mice, survival T/C. The assay can be described thus: NCI In Vivo Anticancer Drug Screen. Data for tumor model L1210 Leukemia (intraperitoneal) in B6D2F1 (BDF1) mice. To be noted: endpoint: mean survival time, higher = longer survival. A digest of the protocol:
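Antitumor effect is assessed in tumor-bearing animals. Survival in the compound arm is compared with a vehicle-dosed control arm and expressed as their quotient.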

Setting [1] is: dose: 100.0 mg/kg/injection, schedule: Q01DX001 (ip), vehicle: saline.
Setting [2] is: dose: 200.0 mg/kg/injection, schedule: Q01DX001 (ip), vehicle: saline.
Setting [3] is: dose: 400.0 mg/kg/injection, schedule: Q01DX001 (ip), vehicle: saline.
Where [4] appears, read: dose: 100.0 mg/kg/injection, schedule: Q01DX009 (ip), vehicle: Klucel (hydroxypropylcellulose) (HPC).
Setting [5] is: dose: 100.0 mg/kg/injection, schedule: Q04DX003 (ip), vehicle: Klucel (hydroxypropylcellulose) (HPC).
The mark [6] stands for this setting: dose: 200.0 mg/kg/injection, schedule: Q01DX009 (ip), vehicle: Klucel (hydroxypropylcellulose) (HPC).
Setting [7] is: dose: 200.0 mg/kg/injection, schedule: Q04DX003 (ip), vehicle: Klucel (hydroxypropylcellulose) (HPC).
The mark [8] stands for this setting: dose: 400.0 mg/kg/injection, schedule: Q01DX009 (ip), vehicle: Klucel (hydroxypropylcellulose) (HPC).
Setting [9] is: dose: 400.0 mg/kg/injection, schedule: Q04DX003 (ip), vehicle: Klucel (hydroxypropylcellulose) (HPC).
[10] abbreviates: dose: 10.0 mg/kg/injection, schedule: Q01DX001 (ip), vehicle: saline.
[11] abbreviates: dose: 20.0 mg/kg/injection, schedule: Q01DX001 (ip), vehicle: saline.
The mark [12] stands for this setting: dose: 100.0 mg/kg/injection, schedule: Q04DX003 (ip), vehicle: saline with Tween-80.
Where [13] appears, read: dose: 200.0 mg/kg/injection, schedule: Q04DX003 (ip), vehicle: saline with Tween-80.
The mark [14] stands for this setting: dose: 400.0 mg/kg/injection, schedule: Q04DX003 (ip), vehicle: saline with Tween-80.

Values joined by “and” are separate entries in the source; they are usually repeats but may differ in a detail not shown here. Identical values can stand only once. Toxic doses and inconclusive results are not listed.

On to `CC(C)OC(=O)Nc1cccc(Cl)c1`, for which the T/C reads like this: (dose: 50.0 mg/kg/injection, schedule: Q01DX009 (ip), vehicle: saline sonified) 100 % of control; (dose: 100.0 mg/kg/injection, schedule: Q01DX009 (ip), vehicle: saline sonified) 101 % of control; (dose: 100.0 mg/kg/injection, schedule: Q04DX003 (ip), vehicle: saline sonified) 87 % of control; (dose: 200.0 mg/kg/injection, schedule: Q01DX009 (ip), vehicle: saline sonified) 99 % of control; (dose: 200.0 mg/kg/injection, schedule: Q04DX003 (ip), vehicle: saline sonified) 94 % of control; (dose: 400.0 mg/kg/injection, schedule: Q04DX003 (ip), vehicle: saline sonified) 94 % of control.

As for `O=C1C(O)=C(O)C(=O)C(O)=C1O`, the T/C under setting [1] was 103 % of control, the T/C under setting [2] was 100 % of control and the T/C under setting [3] is 105 % of control.

Turning to `CC1CCC2(OC1)OC1CC3C4CCC5CC(O)CCC5(C)C4CC(=O)OC3(C)C1C2C` (stereo not drawn), the T/C was 97 % of control (dose: 100.0 mg/kg/injection, schedule: Q01DX001 (ip), vehicle: other); 87 % of control (dose: 200.0 mg/kg/injection, schedule: Q01DX001 (ip), vehicle: other); 92 % of control (dose: 400.0 mg/kg/injection, schedule: Q01DX001 (ip), vehicle: other).

For `CN(C)c1ccccc1C(=O)N/N=C/c1ccc(F)cc1`, the T/C runs as follows: under setting [4], 95 % of control; under setting [5], 99 % of control; under setting [6], 93 % of control; under setting [7], 99 % of control; under setting [8], 96 % of control; under setting [9], 93 % of control.

On to `O=C(NCCCCC(NC(=O)OCc1ccccc1)C(=O)NCCCNCCCCNCCCNC(=O)C(CCCCNC(=O)OCc1ccccc1)NC(=O)OCc1ccccc1)OCc1ccccc1` (stereo not drawn), for which the T/C by setting is: (dose: 2.5 mg/kg/injection, schedule: Q01DX Z (ip), vehicle: saline) 93 % of control; (dose: 5.0 mg/kg/injection, schedule: Q01DX Z (ip), vehicle: saline) 96 % of control; (dose: 10.0 mg/kg/injection, schedule: Q01DX Z (ip), vehicle: saline) 98 % of control; (dose: 20.0 mg/kg/injection, schedule: Q01DX Z (ip), vehicle: saline) 96 % of control.

`COc1ccccc1N(C(C)=O)C1=C(Cl)C(=O)c2ccccc2C1=O`: the T/C under setting [10] was 97 % of control and the T/C under setting [11] was 97 % of control.

With `Cc1cc(C)cc(-n2nnc3ccccc3c2=O)c1`, the T/C reads like this: under setting [4], 102 % of control; (dose: 100.0 mg/kg/injection, schedule: Q04DX003 (ip), vehicle: saline) 91 % of control; under setting [6], 98 % of control; (dose: 200.0 mg/kg/injection, schedule: Q04DX003 (ip), vehicle: saline) 93 % of control; under setting [8], 101 % of control; (dose: 400.0 mg/kg/injection, schedule: Q04DX003 (ip), vehicle: saline) 88 % of control.

Turning to `COc1ccc(N2C(=O)OC3(CCN(Cc4ccccc4)CC3)C2=O)cc1`, the T/C was 96 % of control (dose: 100.0 mg/kg/injection, schedule: Q01DX001 (ip), vehicle: Klucel (hydroxypropylcellulose) (HPC)); 103 % of control (dose: 200.0 mg/kg/injection, schedule: Q01DX001 (ip), vehicle: Klucel (hydroxypropylcellulose) (HPC)); 92 % of control (dose: 400.0 mg/kg/injection, schedule: Q01DX001 (ip), vehicle: Klucel (hydroxypropylcellulose) (HPC)).

Regarding `O=S(Cc1ccc(Cl)cc1)c1ccc(Cl)cc1` (stereo not drawn), the T/C under setting [5] is 97 % of control, the T/C under setting [7] was 90 % of control and the T/C under setting [9] was 104 % of control.

Regarding `Nc1cccc(Nc2cc(S(=O)(=O)O)c(N)c3c2C(=O)c2ccccc2C3=O)c1`, the T/C by setting is: (dose: 5.0 mg/kg/injection, schedule: Q01DX001 (ip), vehicle: saline) 100 % of control; under setting [10], 94 % of control; under setting [11], 100 % of control; (dose: 40.0 mg/kg/injection, schedule: Q01DX001 (ip), vehicle: saline) 100 % of control; (dose: 80.0 mg/kg/injection, schedule: Q01DX001 (ip), vehicle: saline) 103 % of control; under setting [1], 93 % of control. Besides, the T/C under setting [2] was 100 % of control.

In the case of `CC1COC(C(F)(F)Cl)(C(F)(F)Cl)O1` (stereo not drawn), the T/C is, setting by setting: (dose: 100.0 mg/kg/injection, schedule: Q01DX009 (ip), vehicle: saline) 93 % of control and 97 % of control; (dose: 100.0 mg/kg/injection, schedule: Q04DX002 (ip), vehicle: saline) 96 % of control and 101 % of control; (dose: 200.0 mg/kg/injection, schedule: Q01DX009 (ip), vehicle: saline) 94 % of control and 92 % of control; (dose: 200.0 mg/kg/injection, schedule: Q04DX002 (ip), vehicle: saline) 96 % of control and 103 % of control; (dose: 400.0 mg/kg/injection, schedule: Q01DX009 (ip), vehicle: saline) 93 % of control and 105 % of control; (dose: 400.0 mg/kg/injection, schedule: Q04DX002 (ip), vehicle: saline) 100 % of control and 105 % of control.

For the compound `CC1=CC(=O)C=CC1(C)C(Cl)(Cl)Cl` (stereo not drawn), the T/C reads like this: under setting [4], 95 % of control; (dose: 100.0 mg/kg/injection, schedule: Q04DX003 (ip), vehicle: other) 100 % of control; under setting [6], 91 % of control; (dose: 200.0 mg/kg/injection, schedule: Q04DX003 (ip), vehicle: other) 94 % of control; (dose: 400.0 mg/kg/injection, schedule: Q04DX003 (ip), vehicle: other) 101 % of control.

As for `CCCCCCCCCCCCOc1ccc(Br)cc1`, the T/C runs as follows: under setting [12], 98 % of control; under setting [13], 92 % of control; under setting [14], 96 % of control.

Turning to `CN(Cc1cnc2nc(N[Si](C)(C)C)nc(N[Si](C)(C)C)c2n1)c1ccc(C(=O)NC(CCC(=O)O[Si](C)(C)C)C(=O)O[Si](C)(C)C)cc1` (stereo not drawn), the T/C is 112 % of control (dose: 0.62 mg/kg/injection, schedule: Q01DX009 (ip), vehicle: saline); 164 % of control (dose: 1.25 mg/kg/injection, schedule: Q01DX009 (ip), vehicle: saline with Tween-80); 119 % of control (dose: 1.25 mg/kg/injection, schedule: Q01DX009 (ip), vehicle: saline); 187 % of control (dose: 2.5 mg/kg/injection, schedule: Q01DX009 (ip), vehicle: saline with Tween-80); 152 % of control (dose: 5.0 mg/kg/injection, schedule: Q01DX009 (ip), vehicle: saline with Tween-80); 183 % of control (dose: 5.0 mg/kg/injection, schedule: Q01DX009 (ip), vehicle: saline). The T/C (dose: 10.0 mg/kg/injection, schedule: Q01DX009 (ip), vehicle: saline) is 204 % of control.

As for `c1ccc2ncccc2c1`, the T/C is, setting by setting: under setting [5], 101 % of control; under setting [7], 95 % of control.

In the case of `C=CC12CCCCC1C(=C)C(=O)OC2` (stereo not drawn), the T/C was 92 % of control (dose: 12.5 mg/kg/injection, schedule: Q04DX002 (ip), vehicle: saline with Tween-80); 99 % of control (dose: 25.0 mg/kg/injection, schedule: Q04DX002 (ip), vehicle: saline with Tween-80); 96 % of control (dose: 50.0 mg/kg/injection, schedule: Q04DX002 (ip), vehicle: saline with Tween-80).

`Cc1ccc(C)c(NC(=O)OC/C=C/c2ccccc2)c1`: the T/C is 88 % of control under setting [4], 86 % of control under setting [6] and 86 % of control under setting [8].

In the case of `COc1cc(OC)c(NC(=O)NC(C)C)cc1Cl`, the T/C is, setting by setting: under setting [12], 98 % of control; under setting [13], 89 % of control; under setting [14], 88 % of control.

In the case of `C/C=C1\CN(C(=O)C(NC(=O)C(N)C(O)C(O)COC(N)=O)C2OC(n3cc(C(=O)O)c(=O)[nH]c3=O)C(O)C2O)C1C(=O)O` (stereo not drawn) (tested in a mixture with another compound), the T/C was 109 % of control under setting [1], 103 % of control under setting [2] and 97 % of control under setting [3].

As to `CCCCCCCCCCCCCCCCCCNC(=O)Nc1ccccc1`, the T/C (dose: 100.0 mg/kg/injection, schedule: Q01DX009 (ip), vehicle: other) was 101 % of control; the T/C (dose: 200.0 mg/kg/injection, schedule: Q01DX009 (ip), vehicle: other) is 100 % of control; the T/C (dose: 400.0 mg/kg/injection, schedule: Q01DX009 (ip), vehicle: other) was 97 % of control.

For `O=C(Nc1ccc(Cl)cc1)Nc1ccccc1F`, the T/C under setting [13] is 91 % of control and the T/C under setting [14] is 89 % of control.
